According to US9624182B2, “Compounds as lysophosphatidic acid receptor antagonists” (Amira Pharmaceuticals, Inc., priority 2009, dated 2017):

Each compound was assayed against T1, human LPA1 (Homo sapiens, UniProt Q92633) (assay: LPA1 calcium flux assay). Settings: CHO cells expressing human LPA1, stimulated with 10 nM LPA; read-out: HLPA1 Ca Flux IC50.
T1 construct: the full-length cDNA for human LPA1 was obtained by PCR of the reverse transcription reaction; expressed in transfected cells
Type: cell-based
Experimental: A 1.1 kb cDNA encoding the human LPA1 receptor was cloned from human lung. Human lung RNA (Clontech Laboratories, Inc. USA) was reverse transcribed using the RETROscript kit (Ambion, Inc.) and the full-length cDNA for human LPA1 was obtained by PCR of the reverse transcription reaction. The nucleotide sequence of the cloned human LPA1 was determined by sequencing and confirmed to be identical to the published human LPA1 sequence (An et al. Biochenm. Biophys. Res. Commun. 231:619 (1997). The cDNA was cloned into the pCDNA5/FRT expression plasmid and transfected in CHO cells using lipofectamine 2000 (Invitrogen Corp., USA). Clones stably expressing human LPA1 were selected using hygromycin and identified as cells that show Ca-influx in response to LPA.
Human LPA1 or LPA3 expressing CHO cells are seeded at 20,000-45,000 cells per well in a 96-well poly-D-lysine coated plate one or two days before the assay. Prior to the assay, the cells are washed once with PBS and then cultured in serum-free media overnight. On the day of the assay, a calcium indicator dye (Calcium 4, Molecular Devices) in assay buffer (HBSS with Ca^2+ and Mg^2+ and containing 20 mM Hepes and 0.3% fatty-acid free human serum albumin) is added to each well and incubation continued for 1 hour at 37° C. 10 μl of test compounds in 2.5% DMSO are added to the cells and incubation continued at room temperature for 30 minutes. Cells are the stimulated by the addition of 10 nM LPA and intracellular Ca^2+ measured using the Flexstation 3 (Molecular Devices). IC50s are determined using Graphpad prism analysis of drug titration curves.

T1 sequence (Q92633 whole entry): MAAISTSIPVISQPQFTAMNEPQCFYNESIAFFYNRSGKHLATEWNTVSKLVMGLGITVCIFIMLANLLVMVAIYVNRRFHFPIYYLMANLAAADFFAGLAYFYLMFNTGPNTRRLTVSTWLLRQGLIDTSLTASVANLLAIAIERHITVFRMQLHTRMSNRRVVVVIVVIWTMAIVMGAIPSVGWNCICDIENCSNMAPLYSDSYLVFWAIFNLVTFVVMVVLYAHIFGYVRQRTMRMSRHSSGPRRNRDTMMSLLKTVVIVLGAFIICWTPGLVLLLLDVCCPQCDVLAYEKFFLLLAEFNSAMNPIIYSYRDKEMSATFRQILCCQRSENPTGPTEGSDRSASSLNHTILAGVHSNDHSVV

Row | Compound | IC50
1 | Cc1noc(-c2ccc(-c3ccc(C4(C(=O)O)CC4)cc3)cc2)c1CCOCC1CC1 [Compound 1-35, 1-{4′-[4-(2-Cyclopropylmethoxy-ethyl)-3-methyl-isoxazol-5-yl]-biphenyl-4-yl}-cyclopropanecarboxylic acid] | < 300 nM
2 | Cc1noc(-c2ccc(-c3ccc(C4(C(=O)O)CC4)cc3)cc2)c1CCNC(=O)c1ccccc1 [Compound 1-36, 1-{4′-[4-(2-Benzoylamino-ethyl)-3-methyl-isoxazol-5-yl]-biphenyl-4-yl}-cyclopropanecarboxylic acid] | 1000 to 50000 nM
3 | Cc1noc(-c2ccc(-c3ccc(C4(C(=O)O)CC4)cc3)cc2)c1CCN(Cc1ccccc1)Cc1ccccc1 [Compound 1-37, 1-{4′-[4-(2-Dibenzylamino-ethyl)-3-methyl-isoxazol-5-yl]-biphenyl-4-yl}-cyclopropanecarboxylic acid] | 1000 to 50000 nM
4 | Cc1noc(-c2ccc(-c3ccc(C4(C(=O)O)CC4)cc3)cc2)c1C(=O)NCCc1ccccc1 [Compound 1-38, 1-[4′-(3-Methyl-4-phenethylcarbamoyl-isoxazol-5-yl)-biphenyl-4-yl]-cyclopropanecarboxylic acid] | 1000 to 50000 nM
5 | Cc1noc(-c2ccc(-c3ccc(C4(C(=O)O)CC4)cc3)cc2)c1CCC(=O)NC1CC1 [Compound 1-39, 1-{4′-[4-(2-Cyclopropylcarbamoyl-ethyl)-3-methyl-isoxazol-5-yl]-biphenyl-4-yl}-cyclopropanecarboxylic acid] | 1000 to 50000 nM
6 | Cc1noc(-c2ccc(-c3ccc(C4(C(=O)O)CC4)cc3)cc2)c1CCC(=O)NCC1CC1 [Compound 1-40, 1-(4′-{4-[2-(Cyclopropylmethyl-carbamoyl)-ethyl]-3-methyl-isoxazol-5-yl}-biphenyl-4-yl)-cyclopropanecarboxylic acid] | 1000 to 50000 nM
7 | Cc1noc(-c2ccc(-c3ccc(C4(C(=O)O)CC4)cc3)cc2)c1CCC(=O)N1CCCC1 [Compound 1-41, 1-{4′-[3-Methyl-4-(3-oxo-3-pyrrolidin-1-yl-propyl)-isoxazol-5-yl]-biphenyl-4-yl}-cyclopropanecarboxylic acid] | 1000 to 50000 nM
8 | Cc1noc(-c2ccc(-c3ccc(C4(C(=O)O)CC4)cc3)cc2)c1CCC(=O)NCc1ccccc1 [Compound 1-42, 1-{4′-[4-(2-Benzylcarbamoyl-ethyl)-3-methyl-isoxazol-5-yl]-biphenyl-4-yl}-cyclopropanecarboxylic acid] | 1000 to 50000 nM
9 | Cc1noc(-c2ccc(-c3ccc(C4(C(=O)O)CC4)cc3)cc2)c1CCC(=O)Nc1ccccc1 [Compound 1-43, 1-{4′-[3-Methyl-4-(2-phenylcarbamoyl-ethyl)-isoxazol-5-yl]-biphenyl-4-yl}-cyclopropanecarboxylic acid] | > 50000 nM
10 | Cc1noc(-c2ccc(-c3ccc(C4(C(=O)O)CC4)cc3)cc2)c1CCC(=O)N(C)Cc1ccccc1F [Compound 1-44, 1-[4′-(4-{2-[(2-Fluoro-benzyl)-methyl-carbamoyl]-ethyl}-3-methyl-isoxazol-5-yl)-biphenyl-4-yl]-cyclopropanecarboxylic acid] | < 300 nM
11 | Cc1noc(-c2ccc(-c3ccc(C4(C(=O)O)CC4)cc3)cc2)c1COCc1ccccc1 [Compound 1-45, 1-[4′-(4-Benzyloxymethyl-3-methyl-isoxazol-5-yl)-biphenyl-4-yl]-cyclopropanecarboxylic acid] | 1000 to 50000 nM
12 | Cc1noc(-c2ccc(-c3ccc(C4(C(=O)O)CC4)cc3)cc2)c1COCc1ccccc1Cl [Compound 1-46, 1-{4′-[4-(2-Chloro-benzyloxymethyl)-3-methyl-isoxazol-5-yl]-biphenyl-4-yl}-cyclopropanecarboxylic acid] | 1000 to 50000 nM
13 | Cc1noc(-c2ccc(-c3ccc(C4(C(=O)O)CC4)cc3)cc2)c1COC(C)c1ccccc1 (stereo not drawn) [Compound 1-47, 1-{4′-[3-Methyl-4-(1-phenyl-ethoxymethyl)-isoxazol-5-yl]-biphenyl-4-yl}-cyclopropanecarboxylic acid] | 1000 to 50000 nM
14 | Cc1noc(-c2ccc(-c3ccc(C4(C(=O)O)CC4)cc3)cc2)c1CSCc1ccccc1 [Compound 1-50, 1-[4′-(4-Benzylsulfanylmethyl-3-methyl-isoxazol-5-yl)-biphenyl-4-yl]-cyclopropanecarboxylic acid] | 1000 to 50000 nM
15 | Cc1noc(-c2ccc(-c3ccc(C4(C(=O)O)CC4)cc3)cc2)c1C[S+]([O-])Cc1ccccc1 (stereo not drawn) [Compound 1-52, 1-[4′-(3-Methyl-4-phenylmethanesulfinylmethyl-isoxazol-5-yl)-biphenyl-4-yl]-cyclopropanecarboxylic acid] | > 50000 nM
16 | Cc1noc(-c2ccc(-c3ccc(C4(C(=O)O)CC4)cc3)cc2)c1CS(=O)(=O)Cc1ccccc1 [Compound 1-53, 1-[4′-(3-Methyl-4-phenylmethanesulfonylmethyl-isoxazol-5-yl)-biphenyl-4-yl]-cyclopropanecarboxylic acid] | 1000 to 50000 nM
17 | Cc1noc(-c2ccc(-c3ccc(C4(C(=O)O)CC4)cc3)cc2)c1C[S+]([O-])CCc1ccccc1 (stereo not drawn) [Compound 1-54, 1-{4′-[3-Methyl-4-(2-phenyl-ethanesulfinylmethyl)-isoxazol-5-yl]-biphenyl-4-yl}-cyclopropanecarboxylic acid] | < 300 nM
18 | Cc1noc(-c2ccc(-c3ccc(C4(C(=O)O)CC4)cc3)cc2)c1CS(=O)(=O)CCc1ccccc1 [Compound 1-55, 1-{4′-[3-Methyl-4-(2-phenyl-ethanesulfonylmethyl)-isoxazol-5-yl]-biphenyl-4-yl}-cyclopropanecarboxylic acid] | < 300 nM
19 | Cc1noc(-c2ccc(-c3ccc(C4(C(=O)O)CC4)cc3)cc2)c1CNC(=O)OCc1ccccc1 [Compound 1-57, 1-{4′-[4-(Benzyloxycarbonylamino-methyl)-3-methyl-isoxazol-5-yl]-biphenyl-4-yl}-cyclopropanecarboxylic acid] | < 300 nM
20 | Cc1noc(-c2ccc(-c3ccc(C4(C(=O)O)CC4)cc3)cc2)c1CNC(=O)Cc1ccccc1 [Compound 1-58, 1-{4′-[3-Methyl-4-(phenylacetylamino-methyl)-isoxazol-5-yl]-biphenyl-4-yl}-cyclopropanecarboxylic acid] | < 300 nM
21 | Cc1noc(-c2ccc(-c3ccc(C4(C(=O)O)CC4)cc3)cc2)c1CNC(=O)NCc1ccccc1 [Compound 1-59, 1-{4′-[4-(3-Benzyl-ureidomethyl)-3-methyl-isoxazol-5-yl]-biphenyl-4-yl}-cyclopropanecarboxylic acid] | 1000 to 50000 nM
22 | Cc1noc(-c2ccc(-c3ccc(C4(C(=O)O)CC4)cc3)cc2)c1CNC(=O)CCc1ccccc1 [Compound 1-60, 1-(4′-{3-Methyl-4-[(3-phenyl-propionylamino)-methyl]-isoxazol-5-yl}-biphenyl-4-yl)-cyclopropanecarboxylic acid] | 1000 to 50000 nM
23 | Cc1noc(-c2ccc(-c3ccc(C4(C(=O)O)CC4)cc3)cc2)c1CNS(=O)(=O)Cc1ccccc1Cl [Compound 1-61, 1-(4′-{4-[(2-Chloro-phenylmethanesulfonylamino)-methyl]-3-methyl-isoxazol-5-yl}-biphenyl-4-yl)-cyclopropanecarboxylic acid] | 1000 to 50000 nM
24 | Cc1noc(-c2ccc(-c3ccccc3C3(C(=O)O)CC3)cc2)c1/C=C\CCc1ccccc1 [Compound 1-62, 1-{4′-[3-Methyl-4-((Z)-4-phenyl-but-1-enyl)-isoxazol-5-yl]-biphenyl-2-yl}-cyclopropanecarboxylic acid] | 1000 to 50000 nM
